From patent US11202792B2, “CD99 inhibitors and their uses” (GEORGETOWN UNIVERSITY, priority 2016, dated 2021) come the findings set out here.

One assay relates to TC-CD99-shRNA #1 cells. The following applies: mean ± SD. Here is the method: (§1) The plate was installed into the RTCA system, and the electrical impedance (represented as cell index) was measured every 10 min.
(§2) TC-CD99-shRNA clones (TC-CD99-shRNA #1 and TC-CD99-shRNA #2) were established after selection in neomycin (500 μg/ml) (Sigma-Aldrich). The expression of DCK and CD99 was suppressed transiently by using a validated small interfering RNA (siRNA) duplexes targeting coding region (Invitrogen (Carlsbad, Calif.); #s186 and #s8768, respectively). Silencer™ Select Negative Control No. 2 siRNA (Invitrogen) was used as the control. Cells were transfected with DCK or CD99 or control siRNA oligonucleotides using X-tremeGene siRNA transfection reagent (Roche Diagnostics (Basel, Switzerland)) according to the manufacturer's protocol. The cells were analyzed for DCK and CD99 knockdown after 45 or 72 h by immunoblotting.
(§3) Two stable transfectants of TC-71 cell line, TC-CD99-shRNA #1 and TC-CD99-shRNA #2, were generated by using plasmids expressing either a shRNA targeting the 3′ untranslated region (UTR) of CD99 or a scrambled shRNA control.

Another assay concerns TC-CD99-shRNA #2 cells. The following applies: mean ± SD. As to the method:
as §1, §2, §3

For assay [1], the system named is TC-71 and RD-ES cell lines. Nature of the assay: Dose-dependent cytotoxicity assay in ES cell lines. The assay is classed as cell-based, human. The following applies: Homo sapiens; dose-response at 1, 3, 10 and 30 μmol/L in TC-71 and RD-ES. Here is the method: as §1
The primary screen was based on a direct binding assay using surface plasmon resonance (SPR) technology with purified extracellular domain of CD99 (CD99-ECD) protein that was immobilized on a neutravidin-coated sensor chip. […] A negative control protein was used in order to eliminate non-specific binders. […] Dose-response studies were performed with 2 compounds at 1, 3, 10 and 30 μmol/L concentration in ES cell lines.

The test system of assay [2] is RH1 rhabdomyosarcoma cells. Nature of the assay: Cell viability IC50, RH1. Format: cell-based. The following applies: Homo sapiens, RH1 (RM). Here is the method:
as §1
(§4) To investigate the relationship between the level of CD99 expression and drug sensitivity, the endogenous expression of CD99 was determined in a panel of 9 ES and 13 non-ES cell lines. The recombinant purified CD99-ECD protein was used to generate standard curves for immunoquantification of CD99 expression by immunoblotting (FIGS. 6B and 6C).

Another assay relates to TC-71 xenografts. The assay is described as follows: Orthotopic TC-71 xenograft, i.p. administration. Format: in vivo, SCID/beige mice. The following applies: clofarabine 30 mg/kg, cladribine 20 mg/kg; for event-free survival: i.p. once daily 14 days, vs vehicle; for tumor growth: i.p. Here is the method:
The antitumor activity of drugs through intraperitoneal (i.p.) administration given once daily was determined. […] The in vivo potencies of drug treatments were evaluated by event-free survival curves, where tumors that reached 1.0 cm^3 in size considered an event.

The next assay relates to ES cell lines. Nature of the assay: Cell viability IC50 panel (WST-1 or MTT), ES cell lines. Format: cell-based, human. The following applies: for IC50: Homo sapiens, 48 h, read-out: average IC50 concentration for ES cell lines; for IC50 concentrations, ES cell lines: all ES cell lines except A673; for increased sensitivity of ES compared to non-ES cell lines: ratio of average IC50 non-ES vs ES.

For another assay, the system named is IOR/MOS OS cells. The assay is described as follows: Cell viability IC50, IOR/MOS. The assay is classed as cell-based. Particulars: Homo sapiens. As to the method: as §1, §4
The subject of assay [3] is RH4 rhabdomyosarcoma cells. The assay is described as follows: Cell viability IC50, RH4. The assay is classed as cell-based. Particulars: Homo sapiens, RH4 (RM). As to the method: as §1, §4
The next assay deals with 6647 ES cells. The assay is described as follows: Cell viability IC50, 6647. Format: cell-based. The following applies: Homo sapiens. Here is the method: as §1, §4
Another assay has as its system RDES ES cells. Nature of the assay: Cell viability IC50, RDES. Format: cell-based. The following applies: Homo sapiens, RD-ES.
For assay [4], the target named is T1, CD99 homodimers in STA-ET-7.2 ES cells (Homo sapiens, UniProt P14209).
T1 construct: STA-ET-7.2 ES cells, which express the highest level of CD99 protein among all ES cell lines; endogenous in cells; host or cells: STA-ET-7.2
The assay is described as follows: Chemical cross-linking with BS3, CD99 homodimer formation. Format: cell-based. The following applies: 5 μmol/L, 1 h, then 1 mmol/L BS3; STA-ET-7.2 cells. As to the method: The cells were rinsed 3 times with ice-cold PBS, and treated with 1 mmol/L BS^3 (Thermo Scientific) in PBS for 10 min at 37° C. according to manufacturer's instructions. […] Protein samples were then prepared by lysing the cross-linked cells in a lysis buffer as described above.
To address this, in a chemical cross-linking assay, STA-ET-7.2 ES cells were preincubated with the inhibitors for 1 h at a final concentration of 5 μmol/L followed by the addition of 1 mmol/L BS^3, a membrane-impermeable chemical cross-linking agent.

Assay [5] concerns the target T2, recombinant human full-length CD99 (Homo sapiens, UniProt P14209).
T2 construct: Purified recombinant human full-length CD99 produced in HEK293 cells was purchased from Origene; purchased Origene #TP304056; host or cells: HEK293
T2 sequence (P14209 23-185): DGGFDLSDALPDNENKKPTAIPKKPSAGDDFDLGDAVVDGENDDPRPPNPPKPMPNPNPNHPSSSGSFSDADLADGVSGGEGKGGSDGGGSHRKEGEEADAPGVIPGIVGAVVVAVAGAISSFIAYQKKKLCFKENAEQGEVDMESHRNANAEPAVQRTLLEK
Nature of the assay: SPR binding kinetics, recombinant human full-length CD99 (Biacore T200). The following applies: full-length CD99 produced in HEK293 cells, immobilized by amine coupling. As to the method:
The initial binding screening of the NCI/DTP chemical libraries was performed on a Biacore T200 instrument at room temperature using a neutravidin-coated CM5 chip (GE Healthcare Bio-Sciences) coupled with biotinylated CD99-ECD on one flow cell at levels of ˜3,000 response units (RU). A negative control protein, Ly6k was immobilized on another flow cell of the same chip (˜11,000 RU), and the first flow cell was left empty for reference subtraction due to nonspecific binding. Analytes were diluted in HBS—P buffer [10 mmol/L HEPES, pH 7.4, 150 mmol/L NaCl, % 0.05 (v/v) surfactant P20], and were injected individually over all flow cells. The running buffer contained appropriate concentrations of DMSO in HBS—P to match the DMSO level of the samples. Kinetic studies for antibody- or compound-CD99 interactions were performed in a Biacore T200 instrument. Purified recombinant human full-length CD99 produced in HEK293 cells was purchased from Origene (Rockville, Md.) (#TP304056). The recombinant human full-length CD99 was immobilized on a CM5 sensor chip by the amine-coupling method in sodium acetate buffer, pH 4.0 (˜10,000 RU). The first flow cell was left empty for background signal subtraction. Kinetic characterization of the interactions was done by injecting increasing concentrations of analytes as indicated over CD99-captured and control surface. KD (equilibrium dissociation constant) values were obtained using BiaEvaluation software (version 1.0) (Biacore) (GE Healthcare). All kinetic experiments were conducted in HBS—P buffer, which contained 1% (v/v) DMSO in case of compounds.

By Kd is commonly meant a measure of binding affinity in units of concentration.

Where two headings read alike, the source gives them in different places.

On to `Nc1nc(Cl)nc2c1ncn2[C@H]1C[C@H](O)[C@@H](CO)O1` [cladribine], for which the “Fold changes in IC50 compared with TC-71 parental cells” value is reported as 2.85 in the assay with TC-CD99-shRNA #1 cells, 2.85 ± 1.13 (n = 4) in the assay with TC-CD99-shRNA #1 cells (listed as Cladribine), 2.35 in the assay on TC-CD99-shRNA #2 cells and 2.35 ± 1.43 (n = 2) in the assay on TC-CD99-shRNA #2 cells (listed as Cladribine). Also, the IC50 in assay [1] was below 1000 nM; in [2], 900 nM; with ES cell lines it was 1090 ± 1850 nM; in the assay with IOR/MOS OS cells it was above 30000 nM; in [3], above 30000 nM; in the assay on 6647 ES cells it was 710 nM. The IC50 in the assay with RDES ES cells worked out at 660 nM. Further, the event-free survival result in the assay on TC-71 xenografts is “significantly different”. Further, the tumor growth result with TC-71 xenografts is given as “grew slower”. Further, in the assay with ES cell lines, the “IC50 concentrations, ES cell lines” value is listed as “submicromolar”. Besides, the “increased sensitivity of ES compared to non-ES cell lines” value in the assay with ES cell lines is 18 fold. Moreover, in assay [4], the “formation of CD99 homodimers” value was “significantly reduced”. Moreover, in assay [5], the equilibrium dissociation constant (Kd) was 3800 ± 3300 nM.

On to `Nc1nc(Cl)nc2c1ncn2[C@@H]1O[C@H](CO)[C@@H](O)[C@@H]1F` [clofarabine], for which the “Fold changes in IC50 compared with TC-71 parental cells” value in the assay on TC-CD99-shRNA #1 cells was 3.70; in the assay on TC-CD99-shRNA #1 cells (listed as Clofarabine), 3.70 ± 2.98 (n = 5); with TC-CD99-shRNA #2 cells it was 1.63; in the assay on TC-CD99-shRNA #2 cells (listed as Clofarabine) it was 1.63 ± 0.54 (n = 5). The IC50 in [1] was below 1000 nM; in assay [2] it was 200 nM; in the assay with ES cell lines, 440 ± 440 nM; in the assay with IOR/MOS OS cells, above 10000 nM; in assay [3], above 10000 nM; in the assay on 6647 ES cells, 340 nM. In the assay with RDES ES cells, this molecule gave an IC50 of 490 nM. For the same molecule, the event-free survival entry is “not statistically significant” with TC-71 xenografts and “significantly improved” in the assay on TC-71 xenografts (listed as Clofarabine). The tumor growth entry with TC-71 xenografts was “significant inhibition of tumor growth”. Further, the “IC50 concentrations, ES cell lines” value in the assay with ES cell lines is “submicromolar”. The “increased sensitivity of ES compared to non-ES cell lines” value in the assay with ES cell lines came out at 31 fold. For the same molecule, the “formation of CD99 homodimers” value in [4] is listed as “blocked”. Moreover, the Kd in assay [5] turned out to be 5300 ± 3200 nM.
